Our source for the cytotoxicity values is ChEMBL document CHEMBL3507680, “University of Dundee, Gates Library screen for HepG2 cell viability”.

The nature of this data set: Human HepG2 cell viability assay in 384 well format. The format is toxicity, cell-based. The arrangement: dose 125 nL, time 70.5 hour; concentration not given beside the values. Particulars: HepG2 cells, read-out: Inhibition.
Consider `CC(=O)N(Cc1noc(C)n1)C1CCN(Cc2cnc(C)s2)C1` (configuration not stated), for which the cytotoxicity at 70.5 h is -4.39%. Under `Cc1ccc(C(=O)N2CCCN(Cc3cscn3)CC2)o1` stands -6.95%. The figure for `CC(C)c1nn(C)c(N(C)C)c1CNCC(O)c1cccc(F)c1` (configuration not stated) is -10%; for `Cc1nn(C)c(N2CCOCC2)c1CNCc1ccoc1C` it is -11.3%; for `CC(C)COC(C)C(=O)NCc1ccc(F)cc1` (configuration not stated) it is -19.1%.

As to `O=C(NCCC(=O)N1CCCc2ccccc21)c1c(F)cccc1F`, the cytotoxicity at 70.5 h is -12.4%.

`CC(C)COC(C)C(=O)NCc1ccccc1` (configuration not stated): the cytotoxicity at 70.5 h was -5.1%.

For `CCc1nc(CN2CCCC(NCc3nnc(C4CC4)n3C)C2)no1` (configuration not stated), the cytotoxicity at 70.5 h was -8.85%.

Take `CN(C)c1cc(CNC(=O)c2cnccn2)ccn1`: the cytotoxicity at 70.5 h was -8.01%. Under `CC(OCc1ccccc1)C(=O)NCc1ccc(N(C)C)cc1` (configuration not stated) stands -12.6%; under `CN(C)c1cc(CNC(=O)c2cccnc2O)ccn1`, -12.1%; under `Cc1ccc(C(=O)N2CCCC(c3nncn3C)C2)c(C)c1` (configuration not stated), -4.5%. As for `Cc1nn(C)c(N2CCOCC2)c1CNCc1ccc2c(c1)OCO2`, the cytotoxicity at 70.5 h was -5.61%.

For `O=C(CCc1nccs1)N1CCN(c2ccc(Cl)cn2)CC1`, the cytotoxicity at 70.5 h is -5.57%. `O=C(Cc1ccccn1)N1CCN(C(=O)CC2CCCCC2)CC1`: the cytotoxicity at 70.5 h was -2.98%.

Turning to `Cc1nc(CN2CCCN(C(=O)c3c(C)oc(C)c3C)CC2)cs1`, the cytotoxicity at 70.5 h was -10%. Under `Cc1nn(C)c(N2CCOCC2)c1CNCc1ccc(C(C)O)cc1` (configuration not stated) stands -11.7%; under `c1cnnc(N2CCCC(NCc3ccncc3)C2)c1` (configuration not stated), -4.07%; under `COc1cccc(COCC(=O)N2CCCC(n3cccn3)C2)c1` (configuration not stated), -4.65%. The figure for `Cc1ccc(N2CCCC(NCc3ccc(-n4ccnc4)cc3)C2)nn1` (configuration not stated) is 17.4%; for `FC(F)(F)c1ccc(CN2CCN(Cc3cscn3)CC2)cc1` it is -12.5%; for `COc1ccc(OC)c(C(=O)N(C)Cc2ncc(C)c(OC)c2C)c1` it is -9%. As to `Cc1ccn2ncc(C(=O)N3CCCC(n4nc(C)nc4C)C3)c2n1` (configuration not stated), the cytotoxicity at 70.5 h was -5.04%. As for `COc1ccc(F)cc1C(=O)N1CCCC(n2nc(C)nc2C)C1` (configuration not stated), the cytotoxicity at 70.5 h was -9.24%. Take `CCc1nc2n(n1)CC(NCc1nc(-c3cccnc3)no1)CC2` (configuration not stated): the cytotoxicity at 70.5 h is -10.5%. Under `O=C(CCNC(=O)c1ccoc1)Nc1cccc(F)c1` stands -6.83%; under `O=C(CCNC(=O)c1ccoc1)Nc1cc(F)ccc1F`, -5.4%. For `O=C(CCNC(=O)c1ccoc1)Nc1cc(F)cc(F)c1`, the cytotoxicity at 70.5 h is -10.4%.

With `Cn1cnnc1C1CCCN(C(=O)c2ccc3c(c2)OCCO3)C1` (configuration not stated), the cytotoxicity at 70.5 h was -4.4%. Under `COCCOc1ccc(NC(=O)N2CCCC2c2cccs2)cn1` (configuration not stated) stands -4.81%; under `Cc1cccc(OCCCNC(=O)NC(C)c2nncn2C)c1` (configuration not stated), -6.42%; under `Cc1nc(NC(=O)CN2CCOC(Cn3cccn3)C2)sc1C` (configuration not stated), -7.06%.

As to `O=C(COc1cccnc1)N1CCCC(n2cccn2)C1` (configuration not stated), the cytotoxicity at 70.5 h is -2.58%. `Cc1nc(C)n(C2CCCN(C(=O)c3nc(C)n4ccccc34)C2)n1` (configuration not stated): the cytotoxicity at 70.5 h was -9.2%.

`Cc1nc(C)n(C2CCCN(C(=O)c3cccc4cn[nH]c34)C2)n1` (configuration not stated): the cytotoxicity at 70.5 h is -13.2%.

Regarding `Cc1nc(C)n(C2CCCN(C(=O)c3cn4c(C)cccc4n3)C2)n1` (configuration not stated), the cytotoxicity at 70.5 h was 19.8%. Under `CN(C)c1cc(CNC(=O)c2cn(-c3ccc(F)cc3)nn2)ccn1` stands -8.15%.

For `CN(C(=O)c1ccccc1Cl)C1CCN(c2ccccn2)CC1`, the cytotoxicity at 70.5 h was -3.26%. For `CN(C(=O)c1cccc2[nH]ncc12)C1CCN(c2ccccn2)CC1`, the cytotoxicity at 70.5 h was determined as 31.6%. The figure for `COc1ccnc(N2CCN(C(=O)NCc3ccc(C)s3)CC2)n1` is 1.2%; for `Cc1ccsc1CNC(=O)Cc1c(C)nc2c(c1C)c(=O)[nH]n2C` it is -12.2%.

Turning to `Cc1cn2c(n1)CCC(NC(=O)c1nc(C)ncc1Cl)C2` (configuration not stated), the cytotoxicity at 70.5 h was -8.31%. The figure for `O=C(Cn1cccn1)NCC1(c2ccccc2)CC1` is 24.2%. The figure for `CC1CN(C(=O)CN(Cc2ccco2)C2CC2)CCO1` (configuration not stated) is -10.6%; for `CC(C)COC(C)C(=O)NCc1cc(F)cc(F)c1` (configuration not stated) it is -13.3%; for `Cc1noc(C)c1CNCC1CCCN1c1cccnn1` (configuration not stated) it is 22.6%. Under `O=C(CNCCn1cccn1)NCC1(c2ccccc2)CC1` stands -4.79%; under `Cc1cccc(C(=O)NCc2ccnc(N(C)C)c2)n1`, 0.0987%; under `Cc1nc(C)n(CC2CCCN(CCNC(=O)OC(C)(C)C)C2)n1` (configuration not stated), -0.801%.

For the molecule `CCc1ccc(C(=O)N2CCCC(c3noc(CC)n3)C2)o1` (configuration not stated), the cytotoxicity at 70.5 h is -2.81%. Under `CCc1nc(CN2CCCC(NCc3cc(C)no3)C2)no1` (configuration not stated) stands -8.45%; under `Cc1noc(CN2Cc3ccccc3CC2c2nnc(C)o2)n1` (configuration not stated), 4.3%; under `CC1CCN(C(=O)CN(Cc2ccco2)C2CC2)CC1`, -9.01%.

For the molecule `CCc1n[nH]c(C2CN(Cc3nnc(C4CC4)n3C)CCO2)n1` (configuration not stated), the cytotoxicity at 70.5 h came out at 27.9%. As to `Cc1nc2ccccc2nc1CN1CCCC1Cn1cncn1` (configuration not stated), the cytotoxicity at 70.5 h amounted to 19.7%. In the case of `CCn1cc(CN2CCCN(C(=O)c3ccn(C)c(=O)c3)CC2)cn1`, the cytotoxicity at 70.5 h came out at 20.6%. The figure for `Cc1nc(CN2CCCN(CC(=O)Nc3cccnc3)CC2)no1` is 7.78%. As for `Cc1nc(C)n(C2CCCN(C(=O)c3ccccc3C)C2)n1` (configuration not stated), the cytotoxicity at 70.5 h was -7.9%. Under `CNC(=O)c1ccc(CN2CCC(N(C)Cc3noc(C)n3)C2)cc1` (configuration not stated) stands -0.459%; under `O=C(COCc1ccccc1Cl)N1CCCC(n2cccn2)C1` (configuration not stated), 3.17%; under `Cn1ncc2c1CCCC2NCc1ccc(Cl)s1` (configuration not stated), 4.18%. Under `Cc1ccc(OCCCNC(=O)NC(C)c2nncn2C)cc1` (configuration not stated) stands -3.66%. The figure for `CNc1cc2c(nn1)CCN(C(=O)c1ccoc1)C2` is -6.62%; for `O=C(c1ccc(Cl)o1)N1CCCN(Cc2cscn2)CC1` it is -5.01%. As for `Cc1cc(C)n(C2CCCN(C(=O)c3ccc(NC4CC4)nc3)C2)n1` (configuration not stated), the cytotoxicity at 70.5 h is -0.521%. For `CC(C)c1nnc2n1CCN(C(=O)c1ccc(OCC(N)=O)cc1)C2`, the cytotoxicity at 70.5 h is -4.33%. The figure for `OCC1CCCN1c1cc(N2CCN(c3ccccn3)CC2)ncn1` (configuration not stated) is -9.58%; for `Cc1nc(CN(C)C2CCN(Cc3ccc4c(c3)OCCO4)C2)no1` (configuration not stated) it is -2.2%; for `Cn1c(CN2CCOC(c3nc(C(C)(C)C)n[nH]3)C2)nnc1C1CC1` (configuration not stated) it is 26.5%. The figure for `Cc1cc(NC(=O)CN2CCOC(Cn3cccn3)C2)n(C)n1` (configuration not stated) is 8.66%; for `c1cnnc(N2CCCC(NCc3ccc(-n4cccn4)cc3)C2)c1` (configuration not stated) it is -4.64%; for `COCCOc1ccc(NC(=O)N2CCCC2c2cc(C)no2)cn1` (configuration not stated) it is -7.2%. The figure for `Cc1nc(CN2CCCC(N(C)Cc3nnsc3Cl)C2)no1` (configuration not stated) is -1.91%.

Consider `OCC1CCCN1c1cc(N2CCc3ccccc3C2)ncn1` (configuration not stated), for which the cytotoxicity at 70.5 h is 31.1%. The figure for `COCCOc1ccc(NC(=O)N2CCCC2c2ccncc2)cn1` (configuration not stated) is -11.8%; for `Cc1cnn(CC2CCCN2Cc2nc3ccccc3nc2C)c1` (configuration not stated) it is -7.74%; for `Cc1cc(C)n(C2CCCN(C(=O)c3cc(C4CC4)on3)C2)n1` (configuration not stated) it is 0.784%.

In the case of `CC(C)c1nc2n(n1)CC(NCc1ncc(-c3ccccc3)o1)CC2` (configuration not stated), the cytotoxicity at 70.5 h is -6.07%.

Turning to `c1ccc(-c2cnc(CNCC3CCCN3c3cccnn3)o2)cc1` (configuration not stated), the cytotoxicity at 70.5 h is -5.15%. The figure for `Cc1nc2ccccc2nc1CN(C)CC1CCCN1c1cccnn1` (configuration not stated) is 3.52%; for `Cc1noc(C)c1CN(C)CC1CCCN1c1cccnn1` (configuration not stated) it is -7.19%. Under `Cn1cnnc1C1CCCN(C(=O)NCCNc2ccccn2)C1` (configuration not stated) stands -15.9%. The figure for `COc1ccc(C)cc1CSCCn1nc2ccccn2c1=O` is -11.5%.

As to `CC(=O)Nc1nc(C(=O)Nc2ccc(F)cc2)cs1`, the cytotoxicity at 70.5 h is -4.84%. With `CCN(Cc1ccc2c(c1)OCCO2)C(=O)NCc1cc[nH]n1`, the cytotoxicity at 70.5 h is -20.9%.

Turning to `CN(Cc1ccsc1)C(=O)CS(=O)(=O)Cc1ccc(Cl)c(Cl)c1`, the cytotoxicity at 70.5 h is -9.28%. Under `CC(O)CN(CC(=O)NC(=O)NCC(F)(F)F)c1ccccc1` (configuration not stated) stands -11.1%; under `NS(=O)(=O)Cc1ccc(CNC(=O)NCC2CCOC2)cc1` (configuration not stated), -15.3%; under `COc1ccccc1CC1CCCN(CC(N)=O)C1` (configuration not stated), -2.63%. Regarding `O=c1n(CCSCc2ccccc2F)nc2ccccn12`, the cytotoxicity at 70.5 h is -11.3%. Under `Cc1oc(-c2ccco2)nc1CC(=O)N1CCN(CC(C)(C)O)CC1` stands -17.8%. Under `O=C(Nc1cc(F)ccc1OCC1CCCO1)c1ccc(O)nc1` (configuration not stated) stands -6.69%; under `Cc1nnc(N2CCC(CS(N)(=O)=O)CC2)c(C#N)c1C`, -9.82%. The figure for `CCn1nc(C)cc1C(=O)Nc1cc(F)ccc1OCC1CCCO1` (configuration not stated) is -16.3%; for `CN(Cc1nc(N)c2ccccc2n1)CC1CCCN1c1cccnn1` (configuration not stated) it is -16.6%; for `Cn1ccc(C(=O)N2CCCC(n3cncn3)C2)cc1=O` (configuration not stated) it is -10.3%. With `O=C(c1cc[nH]n1)N1CCC(Nc2cccnn2)CC1`, the cytotoxicity at 70.5 h worked out at 14.8%.

In the case of `CC(C(=O)NCc1ccc(-n2cncn2)nc1)n1ccnc1` (configuration not stated), the cytotoxicity at 70.5 h is -18%. On to `CCc1nnc(CN2CCN(C(=O)c3cc4ccccc4[nH]3)CC2)o1`, for which the cytotoxicity at 70.5 h was -3.19%. `Cc1oc(-c2ccco2)nc1CC(=O)N1CCC(C(O)C(F)(F)F)CC1` (configuration not stated): the cytotoxicity at 70.5 h was -18.3%. The figure for `c1cnc(N2CCCC(NCc3ccc(-n4ccnc4)cc3)C2)nc1` (configuration not stated) is -4.91%.

On to `Cn1ncc2c1CCCC2NCc1cc(Br)cs1` (configuration not stated), for which the cytotoxicity at 70.5 h was -0.587%.
